Read-outs that look alike come from different tables or passages of the source.
Tests used:
[1] = target: T1, Bce, oxalate decarboxylase from Bacillus cereus, SEQ ID NO: 1 (Bacillus cereus, UniProt Q81GZ6); details: 2 mM chemical, 6 days at 40° C., pH 9.5, tested at pH 3, against Bce 40° C. control
Procedure: (§5) For determining the pH activity profile of enzymes activity was determined from pH 1.5 to 8.0 using a combination of citrate and phosphate buffers (50 mM). Test sample is added to pre-heated reaction buffer and incubated at 37° C., shaking at 1100 rpm, for a range of set time points (t). The reaction is quenched at time t±5 seconds using 2.5 N H2SO4 at a 10% rate of acid to reaction mixture. The quenched reaction mixture is filtered and analyzed for formate concentration using an isocratic ion exclusion HPLC method.
Injection volume is 40 μl, and mobile phase is 5 mM H2SO4 (Isocratic) with flow rate at 0.6 mL/min and column temperature at 40° C. Standards of oxalic acid and formic acid are analyzed during every batch to prepare the standard curves. The running time between each injection is 20 min, and oxalic acid and formic acid are eluted at around 8 min and 16 min, respectively, detected at wavelength 210 nm.
Several different chemicals at final concentrations of 2 mM were added into the purified OxDC enzymes solution of Bce or Cb6301_D29, obtained as Example 3. After mixing well, these mixtures, in 50 mM Arginine at pH 9.5, were incubated at 40° C. without shaking (still) for 6 days. The enzymes themselves, without added chemicals, were incubated at 40° C. and 4° C. as controls. […]

[2] = target: T2, A8/A0, oxalate decarboxylase from Agrocybe aegerita, SEQ ID NO: 42 (Cyclocybe aegerita, UniProt A0A8S0X585); test: Enzyme kinetics, oxalate degradation by A8/A0 OxDC; type: biochemical
T2 construct: A0 from fungal cells (homogenate), A8 from culture supernatant of A. aegerita; A8 also recombinant in E. coli (pColdIV, pOTIpr or pET)
T2 sequence (A0A8S0X585 with tags, fused parts or gaps): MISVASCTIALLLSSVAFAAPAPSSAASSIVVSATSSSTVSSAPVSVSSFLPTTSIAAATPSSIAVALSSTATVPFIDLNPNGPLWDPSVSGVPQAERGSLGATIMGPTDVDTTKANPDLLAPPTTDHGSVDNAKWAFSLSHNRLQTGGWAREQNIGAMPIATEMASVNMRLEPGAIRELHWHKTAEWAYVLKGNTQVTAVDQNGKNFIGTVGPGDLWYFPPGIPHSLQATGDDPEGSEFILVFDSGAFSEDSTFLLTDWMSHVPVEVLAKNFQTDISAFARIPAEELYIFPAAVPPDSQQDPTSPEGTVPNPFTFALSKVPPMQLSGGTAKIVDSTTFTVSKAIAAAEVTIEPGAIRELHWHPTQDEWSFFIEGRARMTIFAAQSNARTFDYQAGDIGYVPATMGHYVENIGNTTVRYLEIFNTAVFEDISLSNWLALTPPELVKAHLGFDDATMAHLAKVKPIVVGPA
Procedure: (§1) The enzyme kinetics of OxDC from four different species, Bce, Bcl, Cb6301_D29, and A8 were measured and compared to known kinetic data of YvrK. […] The A8 enzyme was measured at four independent pH's of: 5.0, 4.0, 3.5 and 3.0. […] The reaction was terminated by adding 2.5N H2SO4, and analyzed for formate content by HPLC, as described in Example 1. The reaction without oxalate was included as negative control. The initial reaction rates during the first 5 minutes were determined for substrate concentrations between 0.024-12.5 mM, using same procedure described in Example 1.
(§2) To determine the kinetic parameters, kcat and Km, the reaction rates v0 at different substrate concentration [S] were fit to Michaelis-Menten equation in KaleidaGraph software: v0=kcat*[E]t*[S]/(Km+[S])
(§3) Unprotonated glutamic acids in an undisrupted active site are more likely to be kept unprotonated than the equivalent residues in a disrupted active site (such as the active site of a disrupted hexamer).

[3] = target: T3, Cb6301, oxalate decarboxylase from Synechococcus elongates 6301, SEQ ID NO: 2 (Synechococcus elongatus, UniProt A0A0H3K3X3); test: Enzyme kinetics, oxalate, Cb6301 OxDC; type: biochemical; details: Cb6301, pH 3.0 and below
T3 construct: native trimer; the kinetic measurement was probably on the D29 form
T3 sequence (A0A0H3K3X3 1-389): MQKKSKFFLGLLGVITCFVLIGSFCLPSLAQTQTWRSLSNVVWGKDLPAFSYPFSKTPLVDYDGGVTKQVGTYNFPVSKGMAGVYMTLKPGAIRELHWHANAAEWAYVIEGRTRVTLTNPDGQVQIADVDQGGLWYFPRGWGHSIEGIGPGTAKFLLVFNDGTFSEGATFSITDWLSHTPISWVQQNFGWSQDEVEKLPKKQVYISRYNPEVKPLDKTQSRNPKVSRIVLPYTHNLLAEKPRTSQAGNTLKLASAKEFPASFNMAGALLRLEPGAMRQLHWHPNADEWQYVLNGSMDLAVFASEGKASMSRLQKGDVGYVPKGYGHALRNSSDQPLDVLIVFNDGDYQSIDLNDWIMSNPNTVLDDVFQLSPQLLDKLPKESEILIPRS
Procedure: (§4) The enzyme kinetics of OxDC from four different species, Bce, Bcl, Cb6301_D29, and A8 were measured and compared to known kinetic data of YvrK. […] The reaction was terminated by adding 2.5N H2SO4, and analyzed for formate content by HPLC, as described in Example 1. The reaction without oxalate was included as negative control. The initial reaction rates during the first 5 minutes were determined for substrate concentrations between 0.024-12.5 mM, using same procedure described in Example 1.

[4] = target: T1, Bce, oxalate decarboxylase from Bacillus cereus, SEQ ID NO: 1; test: Enzyme kinetics, oxalate degradation by Bce OxDC; details: pH 3.0 and below
Procedure: as §5
(§6) The quenched reaction mixture is filtered and analyzed on an Agilent 1100 series HPLC system equipped with Rezex™ ROA-Organic Acid H+ (8%), LC Column (300×7.8 mm) from Phenomenex. Injection volume is 40 μl, and mobile phase is 5 mM H2SO4 (Isocratic) with flow rate at 0.6 mL/min and column temperature at 40° C. Standards of oxalic acid and formic acid are analyzed during every batch to prepare the standard curves. The running time between each injection is 20 min, and oxalic acid and formic acid are eluted at around 8 min and 16 min, respectively, detected at wavelength 210 nm.
(§7) The A8 enzyme was measured at four independent pH's of: 5.0, 4.0, 3.5 and 3.0. […] The reaction was terminated by adding 2.5N H2SO4, and analyzed for formate content by HPLC, as described in Example 1. […] The initial reaction rates during the first 5 minutes were determined for substrate concentrations between 0.024-12.5 mM, using same procedure described in Example 1.

[5] = tested on: YvrK, oxalate decarboxylase from Bacillus subtilis, SEQ ID NO: 47; details: cited from earlier work
[6] = tested on: oxalate decarboxylases A8, Cb6301, Cb6312, Cb6803 and Bce; test: Affinity for oxalate of A8, Cb6301, Cb6312, Cb6803 and Bce (range); type: biochemical
Procedure: as §4

[7] = tested on: oxalate decarboxylase (OxDC) enzymes of Table 5; test: Catalytic efficiency of the OxDC enzymes (range); type: biochemical; details: see Table 5
Procedure: as §4

[8] = tested on: O=C(O)C(=O)O; test: purified protein, by the assay type; details: other: Bce, pH 3.0, 37° C.
Procedure: as §5, §6, §7

[9] = substrate: O=C(O)C(=O)O; test: purified protein, by the assay type; type: biochemical, Agrocybe aegerita
Procedure: as §1, §2, §3

[10] = substrate: O=C(O)C(=O)O; test: purified protein, by the assay type; type: biochemical, Synechococcus elongates 6301; details: other: Cb6301_D29, oxalate, pH 3.0, 37° C.
Procedure: as §1, §2

[11] = substrate: O=C(O)C(=O)O; test: purified protein, by the assay type; type: biochemical, Bacillus clausii; details: other: Bcl, oxalate, pH 3.0, 37° C.
Procedure: as §5, §6, §7

[12] = other: A8, pH 3.0, 37° C., pH 3.0, 37.0 °C

T1 sequence (Q81GZ6 entry or part of it): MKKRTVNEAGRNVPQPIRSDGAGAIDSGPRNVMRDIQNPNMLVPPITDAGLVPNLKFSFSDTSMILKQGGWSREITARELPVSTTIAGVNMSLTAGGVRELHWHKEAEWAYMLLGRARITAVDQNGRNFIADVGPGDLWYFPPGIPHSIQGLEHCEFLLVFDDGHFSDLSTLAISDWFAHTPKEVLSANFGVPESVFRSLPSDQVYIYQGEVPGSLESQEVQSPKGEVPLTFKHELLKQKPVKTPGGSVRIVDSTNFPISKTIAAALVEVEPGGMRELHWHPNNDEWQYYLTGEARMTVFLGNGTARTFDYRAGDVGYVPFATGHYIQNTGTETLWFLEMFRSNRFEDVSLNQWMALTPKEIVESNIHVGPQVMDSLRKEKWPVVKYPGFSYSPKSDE

**Q.** Which enzyme activity [1] does the source give for O=C(O)CN(CCN(CC(=O)O)CC(=O)O)CC(=O)O [EDTA] here?
**A.** Its enzyme activity is “decreases significantly”.

**Q.** For O=C(O)C(=O)O [oxalate], which Km ([2]; A8/A0, pH 3.0 and below) is on record?
**A.** Its Km is < 1000 µM.

**Q.** What about the “Km as a function of pH” value ([2]; A8, pH 5.0, 4.0, 3.5 and 3.0) of the same molecule?
**A.** Its value is “decreases as the pH becomes more acidic”.

**Q.** And the Km [3]?
**A.** Its Km is < 1000 µM.

**Q.** What about the Km [4] of the same molecule?
**A.** Its Km is < 1000 µM.

**Q.** What about the Km ([5]; YvrK, oxalate, pH 4.2, 22° C.) of the same molecule?
**A.** The Km was 8400 µM.

**Q.** What about the Km ([5]; YvrK, pH 4.0) of the same molecule?
**A.** The Km was 8400 µM.

**Q.** What about the kcat ([5]; YvrK, pH 4.2, 22° C.) of the same molecule?
**A.** The kcat was 53 s⁻¹.

**Q.** And the kcat/KM ([5]; YvrK, pH 4.2, 22° C.)?
**A.** Its kcat/KM is 6310 M⁻¹ s⁻¹.

**Q.** And the Km ([5]; Yvrk, pH not given)?
**A.** Its Km is 8400 µM.

**Q.** What about the Km [6] of the same molecule?
**A.** The Km was 80 to 500 µM.

**Q.** What about the catalytic efficiency [7] of the same molecule?
**A.** Its catalytic efficiency is 871-77000 conversions/M/s.

**Q.** Which kcat [8] does the source give for “Bce, oxalate decarboxylase from Bacillus cereus, SEQ ID NO: 1 (Bacillus cereus ATCC 14579)” here?
**A.** Its kcat is 11.2 s⁻¹.

**Q.** And the kcat/Km [8]?
**A.** Its kcat/Km is 35000 M⁻¹ s⁻¹.

B1: A8/A0, oxalate decarboxylase from Agrocybe aegerita, SEQ ID NO: 42 (Cyclocybe aegerita) (protein)
chain: MISVASCTIALLLSSVAFAAPAPSSAASSIVVSATSSSTVSSAPVSVSSFLPTTSIAAATPSSIAVALSSTATVPFIDLNPNGPLWDPSVSGVPQAERGSLGATIMGPTDVDTTKANPDLLAPPTTDHGSVDNAKWAFSLSHNRLQTGGWAREQNIGAMPIATEMASVNMRLEPGAIRELHWHKTAEWAYVLKGNTQVTAVDQNGKNFIGTVGPGDLWYFPPGIPHSLQATGDDPEGSEFILVFDSGAFSEDSTFLLTDWMSHVPVEVLAKNFQTDISAFARIPAEELYIFPAAVPPDSQQDPTSPEGTVPNPFTFALSKVPPMQLSGGTAKIVDSTTFTVSKAIAAAEVTIEPGAIRELHWHPTQDEWSFFIEGRARMTIFAAQSNARTFDYQAGDIGYVPATMGHYVENIGNTTVRYLEIFNTAVFEDISLSNWLALTPPELVKAHLGFDDATMAHLAKVKPIVVGPA
notes: A0 from fungal cells (homogenate), A8 from culture supernatant of A. aegerita; A8 also recombinant in E. coli (pColdIV, pOTIpr or pET)
**Q.** Which Km ([9]; other: A0, pH not given) does the source give for B1 here?
**A.** Its Km is 80 µM.

**Q.** What about the kcat [9, 12] of the same molecule?
**A.** The kcat was 42 s⁻¹.

**Q.** What about the kcat/Km [9, 12] of the same molecule?
**A.** The kcat/Km was 525000 M⁻¹ s⁻¹.

B2: Cb6301_D29, oxalate decarboxylase from Synechococcus elongates 6301 where the first 29 amino acids at the n-terminus has been removed, SEQ ID NO: 3 … (protein)
chain: MQTQTWRSLSNVVWGKDLPAFSYPFSKTPLVDYDGGVTKQVGTYNFPVSKGMAGVYMTLKPGAIRELHWHANAAEWAYVIEGRTRVTLTNPDGQVQIADVDQGGLWYFPRGWGHSIEGIGPGTAKFLLVFNDGTFSEGATFSITDWLSHTPISWVQQNFGWSQDEVEKLPKKQVYISRYNPEVKPLDKTQSRNPKVSRIVLPYTHNLLAEKPRTSQAGNTLKLASAKEFPASFNMAGALLRLEPGAMRQLHWHPNADEWQYVLNGSMDLAVFASEGKASMSRLQKGDVGYVPKGYGHALRNSSDQPLDVLIVFNDGDYQSIDLNDWIMSNPNTVLDDVFQLSPQLLDKLPKESEILIPRS
notes: start Met followed by residues 31-389), recombinant in E. coli
**Q.** For B2, which Km [10] is on record?
**A.** Its Km is 200 µM.

**Q.** And the kcat [10]?
**A.** Its kcat is 15.4 s⁻¹.

**Q.** What about the kcat/Km [10] of the same molecule?
**A.** The kcat/Km was 77000 M⁻¹ s⁻¹.

B3: Bcl, oxalate decarboxylase from Bacillus clausii, SEQ ID NO: 41 (Shouchella clausii KSM-K16) (protein)
chain: MKRGDNVKPLKGNPNIPQPIRADGAGGVDRGPRNLMRDLQNPNILVPPETDRGLIPNLRFSFSDAHMQLNHGGWSREITQRDLPIATTLAGVNMSLTPGGVRELHWHKQAEWSYMLLGHARITAVDQNGRNFIADVGPGDLWYFPPGIPHSIQGLDDGCEFLLVFDDGMFSDLSTLSLSDWMAHTPKDVLSANFGVPESVFATIPTEQVYIYQDEVPGPLQSQQINSPYGAVPQTFKHELLKQPPLVTPGGSVRIVDSRNFPVSKTIAAALVEVEPGAMREMHWHPNNDEWQYYLTGQARMTVFTGNGVARTFDYRAGDVGYVPFATGHYIQNTGNESVWFLEMFKSDRFEDVSLNQWLALTPTELVQHNIHVDSKFTNKLRKEKWPVVKYPTI
**Q.** What does the source list for B3?
**A.** Km [11]: 1200 µM; kcat [11]: 1.05 s⁻¹; kcat/Km [11]: 871 M⁻¹ s⁻¹

— patent US11603524B2 (priority 2015, dated 2023)
